Assays:
[1] = without solubilizing auxiliary agent; cited from earlier work
[2] = Stability (decomposition) of substrate in aqueous solution; format: physicochemical

| SMILES | solubility in water [1] | decomposition ratio ([2]; enzyme reaction conditions (pH 5, 37° C.) for one hour, 60 min) | stability of aqueous solution ([2]; under ice-cooling) |
| --- | --- | --- | --- |
| CC(=O)N[C@H]1[C@H](Oc2ccc([N+](=O)[O-])cc2Cl)O[C@H](CO)[C@@H](O)[C@@H]1O [2-chloro-4-nitrophenyl-N-acetyl-β-D-glucosaminide] | difficult to dissolve in water |  |  |
| CC(=O)N[C@H]1[C@H](Oc2ccc([N+](=O)[O-])c([N+](=O)[O-])c2)O[C@H](CO)[C@@H](O)[C@@H]1O [3,4-DNG, 3,4-dinitrophenyl-N-acetyl-β-D-glucosaminide] |  | 1.5% | stable |

Source: patent publication US5350677A, “Method of assaying phosphatase with 3,4-dinitrophenylphosphate” (Iatron Laboratories, Inc., priority 1989, dated 1994)
